The values below come from US9365566B2 (Takeda Pharmaceutical Company Limited, priority 2012, dated 2016).

By IC50 is commonly meant the point on the concentration scale where inhibition reaches its midpoint.

The target in the experiment is T1, human BTK (Homo sapiens, UniProt Q06187).
T1 construct: GST (Glutathione-S-Transferase) (cleaved yes); made in house; host or cells: Spodoptera frugiperda Sf9 cells (baculovirus, Bac-to-Bac)
T1 sequence (Q06187 382-659): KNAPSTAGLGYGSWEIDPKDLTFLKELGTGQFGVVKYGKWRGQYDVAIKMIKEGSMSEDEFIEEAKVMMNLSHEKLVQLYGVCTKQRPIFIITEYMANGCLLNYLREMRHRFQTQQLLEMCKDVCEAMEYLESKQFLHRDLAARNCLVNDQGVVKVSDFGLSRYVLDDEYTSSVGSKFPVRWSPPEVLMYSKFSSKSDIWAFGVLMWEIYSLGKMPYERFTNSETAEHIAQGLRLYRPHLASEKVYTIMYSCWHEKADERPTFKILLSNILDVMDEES
Put plainly: BTK inhibition assay: BTK-mediated phosphorylation of FAM-labeled substrate 5-FAM-EEPLYWSFPAKKK-NH2 (Caliper LC-3000). The format is biochemical. To be noted: pIC50 = -log(IC50), IC50 molar; residues 382 to 659 of human BTK; incubated at room temperature for 60 minutes; larger values represent higher potency. The text has this:
The activity of compounds as BTK inhibitors may be determined by a variety of methods, including in vitro and in vivo methods.
This construct engineers an in-frame translational fusion with the Glutathione-S-Transferase (GST) protein for use in affinity purification. The fusion protein derived from this construct contains a protease recognition sequence to liberate the BTK from the GST affinity tag. High-titer baculoviral stocks, generated using the Bac-to-Bac® system (Invitrogen), are used to express the recombinant protein in Spodoptera frugiperda Sf9 cells in 10 L Wave bags. Recombinant proteins are isolated from cellular extracts by passage over Glutathione Sepharose 4B (GE Healthcare) and the BTK moiety is released from the GST affinity tag by treatment with PreScission protease. The BTK recombinant protein is further purified by size exclusion chromatography (HiLoad 16/60 Superdex 200, GE Healthcare) in a buffer containing 20 mM Hepes (pH 7.4), 50 mM NaCl, 10 mM MgCl2, 0.25 mM TCEP and 0.1 mM EDTA. The purity of the fractions is assessed by SDS PAGE and the peak protein fractions are pooled and concentrated using Amicon Ultra-15 Centrifugal Filter Devices (Millipore).
The inhibitory properties of compounds relative to BTK is determined using a black 384-well-plate format in a buffer which contains 50 mM Hepes, 10 mM NaCl, 10 mM MgCl2, 0.2 mM EDTA, 0.01% Brij35®, 1 mM DTT, and 0.1 mg/mL BSA at pH 7.3. The test compound is prepared in DMSO using 2-fold serial dilutions for 11 data points, which are added to the buffer so that each dilution contains 3% DMSO. […] The reaction mixtures are incubated at room temperature for 60 minutes and then quenched by adding 25 μL of 50 mM EDTA. To quantify the fluorescent-labeled substrate and product following reaction, the test plate is loaded on a Caliper LC-3000, which measures percent of conversion by microfluidic-based separation.
The compounds were tested in accordance with the assay described on page 34 of the specification.
In the case of `COc1cc2[nH]ncc2cc1-c1cccc2c(N)c(C(N)=O)nnc12` [Example 103, 4-amino-8-(6-methoxy-1H-indazol-5-yl)cinnoline-3-carboxamide], the IC50 was 0.00398 µM. This lies in the single-digit nanomolar range. The same measure for `NC(=O)c1nnc2c(-c3ccc4nc(-c5cncs5)[nH]c4c3)cccc2c1N` [Example 82, 4-amino-8-(2-(thiazol-5-yl)-1H-benzo[d]imidazol-6-yl)cinnoline-3-carboxamide]: 0.2 µM; for `Cc1cc2c(cnn2C)cc1-c1cccc2c(N)c(C(N)=O)nnc12` [Example 55, 4-amino-8-(1,6-dimethyl-1H-indazol-5-yl)cinnoline-3-carboxamide]: 0.0398 µM; for `Cc1cc(F)c2c(N)c(C(N)=O)nnc2c1-c1ccc2c(c1)CNC2=O` [Example 126, 4-amino-5-fluoro-7-methyl-8-(1-oxoisoindolin-5-yl)cinnoline-3-carboxamide]: 0.0126 µM. `Cc1cc2[nH]ncc2cc1-c1cccc2c(N)c(C(N)=O)nnc12` [Example 49, 4-amino-8-(6-methyl-1H-indazol-5-yl)cinnoline-3-carboxamide] gave an IC50 of 0.01 µM. The same measure for `NC(=O)c1nnc2c(-c3ccc4nc(-c5cccs5)[nH]c4c3)cccc2c1N` [Example 79, 4-amino-8-(2-(thiophen-2-yl)-1H-benzo[d]imidazol-6-yl)cinnoline-3-carboxamide]: 0.316 µM.

For `NC(=O)c1nnc2c(-c3ccc4nccn4c3)cccc2c1N` [Example 10, 4-amino-8-(imidazo[1,2-a]pyridin-6-yl)cinnoline-3-carboxamide], the IC50 is 0.631 µM. Then `NC(=O)c1nnc2c(-c3ccc4nc(C5CCCCC5)[nH]c4c3)cccc2c1N` [Example 68, 4-amino-8-(2-cyclohexyl-1H-benzo[d]imidazol-6-yl)cinnoline-3-carboxamide], with 0.158 µM; and `CCc1ccc2c(N)c(C(N)=O)nnc2c1-c1ccc2c(c1)CNC2=O` [Example 129, 4-amino-7-ethyl-8-(1-oxoisoindolin-5-yl)cinnoline-3-carboxamide], with 0.00501 µM; and `CC(C)(C)c1ccc(-c2nc3ccc(-c4cccc5c(N)c(C(N)=O)nnc45)cc3[nH]2)cc1` [Example 117, 4-amino-8-(2-(4-tert-butylphenyl)-1H-benzo[d]imidazol-6-yl)cinnoline-3-carboxamide], with 0.0794 µM. Turning to `NC(=O)c1nnc2c(-c3ccc4nc(-c5ccc(F)cc5)[nH]c4c3)cccc2c1N` [Example 116, 4-amino-8-(2-(4-fluorophenyl)-1H-benzo[d]imidazol-6-yl)cinnoline-3-carboxamide], half-maximal inhibition (IC50) was put at 0.0398 µM.

`NC(=O)c1nnc2c(-c3ccc4nc(-c5cccc(C(F)(F)F)c5)[nH]c4c3)cccc2c1N` [Example 71, 4-amino-8-(2-(3-(trifluoromethyl)phenyl)-1H-benzo[d]imidazol-6-yl)cinnoline-3-carboxamide] had a half-inhibitory concentration (IC50) of 0.316 µM. With `CC(C)(O)CCN1Cc2cc(-c3cccc4c(N)c(C(N)=O)nnc34)ccc2C1=O` [Example 127, 4-amino-8-(2-(3-hydroxy-3-methylbutyl)-1-oxoisoindolin-5-yl)cinnoline-3-carboxamide], the IC50 was 0.0251 µM.

In turn, `NC(=O)c1nnc2c(-c3ccc4nc(-c5ccccc5)[nH]c4c3)cccc2c1N` [Example 115, 4-amino-8-(2-phenyl-1H-benzo[d]imidazol-6-yl)cinnoline-3-carboxamide] had a half-inhibitory concentration (IC50) of 0.0794 µM.

Consider `NC(=O)c1nnc2c(-c3cc(F)c4c(c3)CC(=O)N4)cccc2c1N` [Example 6, 4-amino-8-(7-fluoro-2-oxoindolin-5-yl)cinnoline-3-carboxamide], for which the 50% inhibitory concentration (IC50) was 3.16 µM.

Consider `NC(=O)c1nnc2c(-c3ccc4nc(CCc5ccccc5)[nH]c4c3)cccc2c1N` [Example 69, 4-amino-8-(2-phenethyl-1H-benzo[d]imidazol-6-yl)cinnoline-3-carboxamide], for which the IC50 was 0.0316 µM.

As to `NC(=O)c1nnc2c(-c3ccc4c(c3)CC(=O)N4)cccc2c1N` [Example 8, 4-amino-8-(2-oxoindolin-5-yl)cinnoline-3-carboxamide], the IC50 is 1.26 µM.

Consider `Cc1nn(C)c2ccc(-c3cccc4c(N)c(C(N)=O)nnc34)cc12` [Example 37, 4-amino-8-(1,3-dimethyl-1H-indazol-5-yl)cinnoline-3-carboxamide], for which the IC50 was 3.98 µM. Then `Cc1ccc2c(N)c(C(N)=O)nnc2c1-c1ccc2cncn2c1` [Example 113, 4-amino-8-(imidazo[1,5-a]pyridin-6-yl)-7-methylcinnoline-3-carboxamide], with 0.02 µM; and `CN(Cc1ccccc1)c1nc2ccc(-c3cccc4c(N)c(C(N)=O)nnc34)cc2[nH]1` [Example 92, 4-amino-8-(2-(benzyl(methyl)amino)-1H-benzo[d]imidazol-6-yl)cinnoline-3-carboxamide], with 1 µM; and `Cc1ccc2c(N)c(C(N)=O)nnc2c1-c1ccc2c(c1)c(C)nn2C` [Example 36, 4-amino-8-(1,3-dimethyl-1H-indazol-5-yl)-7-methylcinnoline-3-carboxamide], with 0.501 µM. Then `NC(=O)c1nnc2c(-c3ccc4nc(CC5CCOCC5)[nH]c4c3)cccc2c1N` [Example 81, 4-amino-8-(2-((tetrahydro-2H-pyran-4-yl)methyl)-1H-benzo[d]imidazol-6-yl)cinnoline-3-carboxamide], with 2.51 µM. The same measure for `N#Cc1nc2ccc(-c3cccc4c(N)c(C(N)=O)nnc34)cc2[nH]1` [Example 130, 4-amino-8-(2-cyano-1H-benzo[d]imidazol-6-yl)cinnoline-3-carboxamide]: 0.2 µM; for `NC(=O)c1nnc2c(-c3cc4[nH]ncc4cc3Cl)cccc2c1N` [Example 105, 4-amino-8-(5-chloro-1H-indazol-6-yl)cinnoline-3-carboxamide]: 0.0158 µM; for `NC(=O)c1nnc2c(-c3ccc4nc(NCC5CC5)[nH]c4c3)cccc2c1N` [Example 65, 4-amino-8-(2-((cyclopropylmethyl)amino)-1H-benzo[d]imidazol-6-yl)cinnoline-3-carboxamide]: 0.0631 µM. `NC(=O)c1nnc2c(-c3ccc4c(c3)ncn4C3CCCCC3)cccc2c1N` [Example 18, 4-amino-8-(1-cyclohexyl-1H-benzo[d]imidazol-5-yl)cinnoline-3-carboxamide] had an IC50 of 1.26 µM.

`Cc1ccc2c(N)c(C(N)=O)nnc2c1-c1ccc2nncn2c1` [Example 112, 8-([1,2,4]triazolo[4,3-a]pyridin-6-yl)-4-amino-7-methylcinnoline-3-carboxamide] showed a half-maximal inhibitory concentration (IC50) of 0.1 µM. The same measure for `NC(=O)c1nnc2c(-c3ccc4nc(-c5ccsc5)[nH]c4c3)cccc2c1N` [Example 73, 4-amino-8-(2-(thiophen-3-yl)-1H-benzo[d]imidazol-6-yl)cinnoline-3-carboxamide]: 0.158 µM; for `Cn1cc2cc(-c3cccc4c(N)c(C(N)=O)nnc34)ccc2n1` [Example 11, 4-amino-8-(2-methyl-2H-indazol-5-yl)cinnoline-3-carboxamide]: 1 µM; for `Cn1ccc2cc(-c3cccc4c(N)c(C(N)=O)nnc34)ccc21` [Example 5, 4-amino-8-(1-methyl-1H-indol-5-yl)cinnoline-3-carboxamide]: 3.98 µM. Then `NC(=O)c1nnc2c(-c3ccc4cn[nH]c4c3)c(Cl)ccc2c1N` [Example 54, 4-amino-7-chloro-8-(1H-indazol-6-yl)cinnoline-3-carboxamide], with 0.0158 µM.
